Measured values as given in ChEMBL document CHEMBL1126805, “Synthesis and evaluation of a series of benzylaniline hydrochlorides as potential cytotoxic and antimitotic agents acting by inhibition of tubulin polymerization” (J Med Chem, 1993).
pIC50: −log10 of the molar value.

Columns and labels:
[1] = test system: OVCAR-3; test: Tested for cytotoxicity against OVCAR-3 (ovarian cancer) cell line.; type: functional, Homo sapiens
[2] = target: Tubulin (Bos taurus, UniProt Q6B856+Q862F3); test: In vitro inhibition of bovine electrophoretically homogeneous tubulin polymerization.; type: functional
[3] = test system: HL-60; test: Tested for cytotoxicity against human cancer cell lines HL-60(TB) (leukemia) cell line.; type: functional
[4] = test system: DMS-273; test: Tested for cytotoxicity against DMS 273 (small-cell lung cancer) cell line.; type: functional, Homo sapiens
[5] = test system: NCI-H522; test: Tested for cytotoxicity against NCI-H522 (non-small-cell lung cancer) cell line.; type: functional, Homo sapiens
[6] = test system: COLO 205; test: Tested for cytotoxicity against COLO 205 (colon cancer) cell line.; type: functional, Homo sapiens
[7] = test system: M14; test: Tested for cytotoxicity against M14 melanoma; type: functional, Homo sapiens
[8] = test system: SF-295; test: In vitro cytotoxicity against SF-295 (CNS cancer) cell line.; type: functional, Homo sapiens
[9] = test system: CAKI-1; test: Tested for cytotoxicity against CAKI-1 renal cancer; type: functional, Homo sapiens

Sequence of Tubulin (Q6B856 whole entry): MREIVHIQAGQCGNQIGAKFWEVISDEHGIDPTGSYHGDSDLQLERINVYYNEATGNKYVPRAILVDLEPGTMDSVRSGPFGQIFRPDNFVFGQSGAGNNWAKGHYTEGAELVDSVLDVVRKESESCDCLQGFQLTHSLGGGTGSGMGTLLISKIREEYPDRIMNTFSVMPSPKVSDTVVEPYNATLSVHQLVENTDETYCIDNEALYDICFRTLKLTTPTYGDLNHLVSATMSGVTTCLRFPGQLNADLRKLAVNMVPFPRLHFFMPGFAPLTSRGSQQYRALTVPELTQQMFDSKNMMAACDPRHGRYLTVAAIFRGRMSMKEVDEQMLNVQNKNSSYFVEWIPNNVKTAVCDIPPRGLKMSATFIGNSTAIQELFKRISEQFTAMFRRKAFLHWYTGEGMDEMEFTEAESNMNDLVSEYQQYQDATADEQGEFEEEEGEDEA
Sequence of Tubulin (Q862F3 whole entry): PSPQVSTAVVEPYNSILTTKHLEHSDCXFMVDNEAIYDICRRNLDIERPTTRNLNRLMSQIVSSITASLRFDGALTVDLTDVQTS

Row | Structure (SMILES) | GI50 [1] | pIC50 [2] | GI50 [3] | GI50 [4] | GI50 [5] | GI50 [6] | GI50 [7] | GI50 [8] | GI50 ([1]; Homo sapiens, OVCAR-3) | GI50 ([9]; Homo sapiens, CAKI-1) | GI50 ([3]; Homo sapiens, HL-60) | GI50 ([4]; Homo sapiens, DMS-273) | GI50 ([5]; Homo sapiens, NCI-H522) | GI50 ([6]; Homo sapiens, COLO 205) | GI50 ([7]; Homo sapiens, M14) | GI50 ([8]; Homo sapiens, SF-295) | GI50 [9]
1 | CCc1ccc(NCc2cc(OC)c(OC)c(OC)c2)cc1 | 0.405 µM | 5.14 | 0.245 µM | 0.818 µM | 0.371 µM | 0.352 µM | 0.437 µM | 0.339 µM |  |  |  |  |  |  |  |  | 
2 | COc1cc(/C=N/c2ccc(C(C)C)cc2)cc(OC)c1OC |  | < 4.40 |  |  |  |  |  |  | > 100 µM | > 100 µM | > 100 µM | 52.5 µM | > 100 µM | > 100 µM | > 100 µM | > 100 µM | 
3 | COc1cc(CNc2ccc(SC)cc2)cc(OC)c1OC [listing 1 of 2 here] |  | < 4.40 |  |  |  |  |  | 7.28 µM | 5.93 µM | 32 µM | 3.7 µM | 3.09 µM | 4.68 µM | 3.88 µM | 5.26 µM |  | 
4 | COc1cc(CNc2ccc(SC)cc2)cc(OC)c1OC [listing 2 of 2 here] | 4.85 µM | 4.80 | 3.29 µM | 4.91 µM | 2.95 µM | 3.6 µM | 4.84 µM | 3.41 µM |  |  |  |  |  |  |  |  | 16.3 µM
